Experimental data: ChEMBL document CHEMBL5050856, “Atf6 modulators and uses thereof” (2021)

What was measured:
Assay type in all cases: cell-based
U2OS [1] = assay: Modulation of ATF6 activity in human U2OS cells at 1 uM in presence of ER stress inducer thapsigargin (Tg) measured by TRE-luciferase reporter assay relative to control
U2OS [2] = assay: Modulation of ATF6 activity in human U2OS cells at 10 uM in presence of ER stress inducer thapsigargin (Tg) measured by TRE-luciferase reporter assay relative to control
U2OS [3] = assay: Modulation of ATF6 activity in human U2OS cells at 1 uM measured by TRE-luciferase reporter assay relative to control
U2OS [4] = assay: Modulation of ATF6 activity in human U2OS cells at 10 uM measured by TRE-luciferase reporter assay relative to control

Compound	Activity (U2OS [1])	Activity (U2OS [2]; filed as activator)	Activity (U2OS [3])	Activity (U2OS [4])	Activity (U2OS [1]; filed as activator)	Activity (U2OS [2])
CC(c1c(Cl)cccc1Cl)n1cc(C#Cc2nnc(-c3ccccn3)s2)cn1 (configuration not stated)	75%	100%	0%	0%	–	–
CC(c1ccc(C(F)(F)F)cc1C(F)(F)F)n1cc(/C=C/c2nnc(-c3ccccn3)s2)cn1 (configuration not stated)	–	–	–	–	100%	< 50%
CC(c1ccc(C(F)(F)F)cc1C(F)(F)F)n1cc(CCc2nnc(-c3ccccn3)s2)cn1 (configuration not stated)	75%	–	–	–	–	< 50%
FC(F)(F)c1ccc(Cn2cc(C#Cc3nnc(-c4ccccn4)s3)cn2)c(C(F)(F)F)c1	50%	–	–	–	–	75%
O=C(Nc1cnn(C2CCCC2)c1)c1cc(-c2ccco2)on1	–	> 150%	0%	0%	> 150%	–
O=C(Nc1cnn(C2CCNC2)c1)c1cc(-c2ccco2)on1 (configuration not stated)	–	> 150%	0%	0%	125%	–
O=C(Nc1cnn(C2CNC2)c1)c1cc(-c2ccco2)on1	–	–	0%	–	125%	–
O=C(Nc1cnn(CC2CCCC2)c1)c1cc(-c2ccco2)on1	–	> 150%	0%	0%	> 150%	–
O=C(Nc1cnn(Cc2c(Cl)cncc2Cl)c1)c1cc(-c2ccco2)on1	–	125%	0%	0%	100%	–
O=C(Nc1cnn(Cc2ccc(C(F)(F)F)cc2)c1)c1cc(-c2ccco2)on1	–	–	0%	–	100%	75%
O=C(Nc1cnn(Cc2ccc(C(F)(F)F)cc2C(F)(F)F)c1)c1cc(-c2ccco2)on1	< 50%	–	–	–	–	< 50%
O=C(Nc1cnn(Cc2ccccc2)c1)c1cc(-c2ccco2)on1	–	125%	0%	25%	100%	–
CC(c1ccc(C(F)(F)F)cc1C(F)(F)F)n1cc(C#Cc2nnc(-c3ccccn3)s2)cn1 (stereo in doubt; 2-1)	50%	–	–	–	–	< 50%
CC(c1ccc(C(F)(F)F)cc1C(F)(F)F)n1cc(C#Cc2nnc(-c3ccccn3)s2)cn1 (stereo in doubt; 2-2)	< 50%	–	–	–	–	< 50%
CC(c1ccc(C(F)(F)F)cc1C(F)(F)F)n1cc(/C=C\c2nnc(-c3ccccn3)s2)cn1 (stereo in doubt; 2-6)	–	–	–	–	100%	50%
CC(c1ccc(C(F)(F)F)cc1C(F)(F)F)n1cc(/C=C\c2nnc(-c3ccccn3)s2)cn1 (stereo in doubt; 2-7)	–	–	–	–	100%	75%
CC(c1ccc(C(F)(F)F)cc1C(F)(F)F)n1cc(/C=C\c2nnc(-c3ccccn3)s2)cn1 (stereo in doubt; 2-8)	–	–	–	–	100%	50%
CC(c1ccc(C(F)(F)F)cc1C(F)(F)F)n1cc(C#Cc2nnc(-c3cnccn3)s2)cn1 (stereo in doubt; 2-10)	50%	–	–	–	–	75%

Compound	Activity (U2OS [1])	Activity (U2OS [2]; filed as activator)	Activity (U2OS [3])	Activity (U2OS [4])	Activity (U2OS [1]; filed as activator)	Activity (U2OS [2])
Cc1nn(C(C)c2ccc(C(F)(F)F)cc2C(F)(F)F)cc1C#Cc1nnc(-c2ccccn2)s1 (stereo in doubt; 2-11)	50%	–	–	–	–	50%
CC(c1ccc(C(F)(F)F)cc1C(F)(F)F)n1cc(C#Cc2nnc(-c3cnccn3)s2)cn1 (stereo in doubt; 2-21)	75%	–	–	–	–	75%
CC(c1ccc(C(F)(F)F)cc1C(F)(F)F)n1cc(C#Cc2nnc(-c3cnccn3)s2)cn1 (stereo in doubt; 2-22)	50%	–	–	–	–	75%
Cc1nn(C(C)c2ccc(C(F)(F)F)cc2C(F)(F)F)cc1C#Cc1nnc(-c2ccccn2)s1 (stereo in doubt; 2-23)	75%	–	–	–	–	50%
Cc1nn(C(C)c2ccc(C(F)(F)F)cc2C(F)(F)F)cc1C#Cc1nnc(-c2ccccn2)s1 (stereo in doubt; 2-24)	< 50%	–	–	–	–	< 50%
CC(C1CCCC1)n1cc(NC(=O)c2cc(-c3ccco3)on2)cn1 (stereo in doubt; 3-5)	–	> 150%	0%	0%	125%	–
CC(C1CCCC1)n1cc(NC(=O)c2cc(-c3ccco3)on2)cn1 (stereo in doubt; 3-17)	–	125%	0%	0%	125%	–
CC(C1CCCC1)n1cc(NC(=O)c2cc(-c3ccco3)on2)cn1 (stereo in doubt; 3-18)	–	125%	0%	0%	100%	–
O=C(Nc1cnn(C2CCOC2)c1)c1cc(-c2cccs2)on1 (stereo in doubt; 3-19)	–	> 150%	0%	25%	> 150%	–
O=C(Nc1cnn(C2CCOC2)c1)c1cc(-c2ccccn2)on1 (stereo in doubt; 3-20)	–	> 150%	0%	0%	100%	–
O=C(Nc1cnn(C2CCOC2)c1)c1cc(-c2ccccn2)on1 (stereo in doubt; 3-21)	–	> 150%	0%	25%	> 150%	–
O=C(Nc1cnn(C2CCOC2)c1)c1cc(-c2cccs2)on1 (stereo in doubt; 3-22)	–	> 150%	0%	25%	125%	–
O=C(Nc1cnn(C2CCOC2)c1)c1cc(-c2cccs2)on1 (stereo in doubt; 3-23)	–	> 150%	25%	> 50%	> 150%	–
CC(C1CCOC1)n1cc(NC(=O)c2cc(-c3ccco3)on2)cn1 (stereo in doubt; 3-24)	–	> 150%	0%	25%	100%	–
CC(C1CCOC1)n1cc(NC(=O)c2cc(-c3ccco3)on2)cn1 (stereo in doubt; 3-25)	–	> 150%	0%	0%	100%	–
CC(C1CCOC1)n1cc(NC(=O)c2cc(-c3ccco3)on2)cn1 (stereo in doubt; 3-26)	–	> 150%	0%	> 50%	> 150%	–
CC(C1CCOC1)n1cc(NC(=O)c2cc(-c3ccco3)on2)cn1 (stereo in doubt; 3-27)	–	> 150%	0%	25%	100%	–
